Measurements published in patent publication US11505560B2, “Heterobifunctional compounds with improved specificity” (DANA-FARBER CANCER INSTITUTE, INC., priority 2017, dated 2022).
“Also recorded” adds a separate entry of the source.

Legend:
[1] = test system: BRD2BD1, BRD2BD2, BRD3BD1, BRD3BD2, BRD4BD1, BRD4BD2 GFP constructs; assay: Cellular imaging-based degradation assay (bromodomain-GFP with mCherry reporter); assay type: cell-based, human
Protocol: Cells stably expressing bromodomain-GFP with mCherry reporter were seeded at 30-50% confluency in 384 well plates (3764, Corning) with 50 μL FluoroBrite DMEM media (Gibco, A18967) containing 10% FBS per well a day before compound treatment. Compounds (see Figure legends) were dispensed using D300e Digital Dispenser (HP) normalized to 0.5% DMSO and incubated with cells for 5 h. The assay plate was imaged immediately using Acumen eX3/HCl (TTPLabtech) High Content Imager with 488 nm and 561 nm lasers in 2 μm×1 μm grid per well format. The resulting images were analyzed using CellProfiler™ (Carpenter, et al., GenomeBiology 7:r100 (2006)). A series of image analysis steps (‘image analysis pipeline’) was constructed.
The CellProfiler™ pipeline steps are briefly outlined here. First, the red and green channels were aligned and cropped to target the middle of each well (to avoid analysis of heavily clumped cells at the edges), and a background illumination function was calculated for both red and green channels of each well individually and subtracted to correct for illumination variations across the 384-well plate from various sources of error. An additional step was then applied to the green channel to suppress the analysis of large auto fluorescent artifacts and enhance the analysis of cell specific fluorescence by way of selecting for objects under a given size, 30 A.U., and with a given shape, speckles. mCherry-positive cells were then identified in the red channel filtering for objects between 8-60 pixels in diameter and using intensity to distinguish between clumped objects. The green channel was then segmented into GFP positive and negative areas and objects were labeled as GFP positive if at least 40% of it overlapped with a GFP positive area. The fraction of GFP-positive cells/mCherry-positive cells (GFP/mCherry ratio) in each well was then calculated, and the green and red images were rescaled for visualization. The GFP/mCherry ratio was normalized to DMSO and analyzed in GraphPad Prism 7.

[2] = test system: BRD2BD1, BRD2BD2, BRD3BD1, BRD3BD2, BRD4BD1, BRD4BD2 EGFP constructs; assay: EGFP/mCherry reporter assay on individual BET bromodomains (flow cytometry); assay type: cell-based, human; settings: for selectivity of degradation across BET bromodomains (in words): BRD2/3/4 BD1 and BD2
Protocol: (§1) IKZF1A, BRD2BD1, BRD2BD2, BRD3BD1, BRD3BD2, BRD4BD1, and BRD4BD2 were subcloned into mammalian pcDNA5/FRT Vector (Ampicillin and Hygromycin B resistant) modified to contain MCS-eGFP-P2A-mCherry. […] Following 2-3 passage cycle FACS (FACSAria II, BD) was used to enrich for cells expressing eGFP and mCherry.
(§2) Signal from 5000 cells per well was acquired in singlicate or duplicate and the eGFP and mCherry florescence monitored. Data was analyzed using FlowJo (FlowJo, LCC). […] The eGFP protein abundance relative to mCherry was then quantified as a ten-fold amplified ratio for each individual cell using the formula: 10×eGFP/mCherry. The median of the ratio was then calculated per set, normalized to the median of the DMSO ratio, and is denoted as relative abundance. Standard deviation is calculated from four replicates (n=4) unless described otherwise.

[3] = target: T1, IKZF1Δ-CRBN complex formation (Homo sapiens, UniProt Q13422+Q96SW2, DEL197-239); assay: CRBN-IKZF1Δ binding assay (TR-FRET); settings: IKZF1Δ and DDB1ΔB-CRBN
T1 construct: made in house; host or cells: Trichoplusia ni High-Five insect cells (baculovirus)
T1 sequence (Q96SW2 whole entry, stated change not applied): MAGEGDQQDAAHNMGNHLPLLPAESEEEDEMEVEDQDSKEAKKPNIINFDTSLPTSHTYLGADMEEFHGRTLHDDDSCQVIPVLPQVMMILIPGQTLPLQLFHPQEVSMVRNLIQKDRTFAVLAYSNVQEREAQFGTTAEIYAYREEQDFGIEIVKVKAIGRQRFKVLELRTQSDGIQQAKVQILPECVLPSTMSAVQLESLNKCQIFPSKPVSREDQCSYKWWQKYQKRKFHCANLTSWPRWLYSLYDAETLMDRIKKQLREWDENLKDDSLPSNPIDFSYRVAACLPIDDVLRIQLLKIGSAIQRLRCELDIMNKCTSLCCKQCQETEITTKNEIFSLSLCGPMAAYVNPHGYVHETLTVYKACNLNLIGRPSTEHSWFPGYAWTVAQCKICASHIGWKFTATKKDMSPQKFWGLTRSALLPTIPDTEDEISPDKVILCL
T1 sequence (Q13422 with tags, fused parts or gaps DEL197-239 limits assumed): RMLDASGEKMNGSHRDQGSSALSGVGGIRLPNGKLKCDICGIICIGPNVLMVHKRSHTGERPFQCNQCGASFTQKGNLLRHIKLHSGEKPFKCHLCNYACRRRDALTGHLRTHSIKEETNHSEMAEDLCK
Protocol: Compounds in CRBN mutants dimerization assay were dispensed as described above into 200 nM His6-DDB1-His6-CRBNmutants or 200 nM His6-DDB1ΔB-His6-CRBNWT, 100 nM BRD4BD1-BODIPY-SpyCatcher and 2 nM terbium-anti-HIS Ab (Invitrogen) in a buffer containing 50 mM Tris pH 7.5, 100 mM NaCl, 0.1% Pluronic F-68 solution (Sigma) and 2% DMSO (4% DMSO final). Before TR-FRET measurements were conducted, the reactions were incubated for 15 min at RT. […] The TR-FRET signal of each data point was extracted by calculating the 520/490 nm ratio. […] The peak height of TR-FRET dBET dose response data was calculated in GraphPad Prism 7 using Area Under Curve analysis for three independent replicates (n=3) and the mean peak height and standard deviation calculated.
The standard deviation in IKZF1A TR-FRET compound titrations was calculated from three biological replicates (n=3) as an average of 5 technical replicates per well per experiment, or as an average of 5 technical replicates of single experiment for unlabelled protein titrations.

[4] = target: T2, IKZF1Δ-EGFP fusion protein (Homo sapiens, UniProt Q13422+Q96SW2, DEL197-239); assay: IKZF1Δ-EGFP fusion protein degradation reporter assay (flow cytometry); assay type: cell-based; settings: HEK293T cells
T2 construct: expressed in transfected cells; HEK293T cells
Protocol: as §1, §2

BRD4BD1-EGFP = target: T3, BRD4BD1-EGFP (Homo sapiens, UniProt O60885+Q96SW2); assay: BRD4BD1-EGFP/mCherry reporter cellular degradation assay (flow cytometry); assay type: cell-based; settings: 5 h treatment
T3 construct: expressed in transfected cells
Protocol: as §1, with “Reporter cells that stably express BRD4BD1-EGFP followed by a P2A splice site separated mCherry, were treated with increasing concentrations of dBET molecules (FIG. 3A-FIG. 3F). […] IKZF1A,” for “IKZF1A,”
as §2

[5] = test system: BRD2 and BRD3 in HEK293T cells; assay: Immunoblot for cellular degradation of BRD2 and BRD3; assay type: cell-based, human
Protocol: (§3) HEK293T cells were treated with increasing concentrations of ZXH-03-26.

[6] = target: T4, endogenous BRD4 in HEK293T cells (Homo sapiens, UniProt O60885); assay: Immunoblot for cellular degradation of endogenous BRD4; assay type: cell-based; settings: 5 hours
T4 construct: retains activity on endogenous full length BRD4; endogenous in cells; host or cells: HEK293T
Protocol: as §3

[7] = 5 h incubation, cellular imaging

COC(=O)C[C@@H]1N=C(c2ccc(Cl)cc2)c2c(sc(C(=O)NCCCCCNc3cc(F)cc4c3CN(C3CCC(=O)NC3=O)C4=O)c2C)-n2c(C)nnc21 (stereo partly drawn) [BJG-01-174, Methyl 2-((6S)-4-(4-chlorophenyl)-2-((5-((2-(2,6-dioxopiperidin-3-yl)-6-fluoro-1-oxoisoindolin-4-yl)amino)pentyl)carbamoyl)-3,9-dimethyl-6H-thieno[3,2-f][1,2,4]triazolo[4,3-a][1,4]diazepin-6-yl)acetate]
bromodomain degradation activity and selectivity (in words) [1, 7]: inactive degrader

COC(=O)C[C@@H]1N=C(c2ccc(Cl)cc2)c2c(sc(C(=O)NCCCCCOc3cccc4c3C(=O)N(C3CCC(=O)NC3=O)C4=O)c2C)-n2c(C)nnc21 (stereo partly drawn) [BJG-02-030, Methyl 2-((6S)-4-(4-chlorophenyl)-2-((5-((2-(2,6-dioxopiperidin-3-yl)-1,3-dioxoisoindolin-4-yl)oxy)pentyl)carbamoyl)-3,9-dimethyl-6H-thieno[3,2-f][1,2,4]triazolo[4,3-a][1,4]diazepin-6-yl)acetate]
bromodomain degradation activity and selectivity (in words) [1, 7]: maintained BRD4BD1 degradation selectivity, with reduced activity

COC(=O)C[C@@H]1N=C(c2ccc(Cl)cc2)c2c(sc(C(=O)NCCCCCNc3ccc(F)c4c3C(=O)N(C3CCC(=O)NC3=O)C4=O)c2C)-n2c(C)nnc21 (stereo partly drawn) [BJG-02-119, Methyl 2-((6S)-4-(4-chlorophenyl)-2-((5-((2-(2,6-dioxopiperidin-3-yl)-7-fluoro-1,3-dioxoisoindolin-4-yl)amino)pentyl)carbamoyl)-3,9-dimethyl-6H-thieno[3,2f][1,2,4]triazolo[4,3-a][1,4]diazepin-6-yl)acetate]
bromodomain degradation activity and selectivity (in words) [1, 7]: maintaining selectivity, with reduced activity as compared to ZXH-3-26

Cc1ncsc1-c1ccc(CNC(=O)[C@@H]2C[C@@H](O)CN2C(=O)[C@@H](NC(=O)COCCOCCOCCNC(=O)C[C@@H]2N=C(c3ccc(Cl)cc3)c3c(sc(C)c3C)-n3c(C)nnc32)C(C)(C)C)cc1 [MZ1, reference compound]
selectivity of degradation across BET bromodomains (in words) [2]: activity on most bromodomains

Cc1sc2c(c1C)C(c1ccc(Cl)cc1)=N[C@@H](CC(=O)NCCOc1cccc3c1C(=O)N(C1CCC(=O)NC1=O)C3=O)c1nnc(C)n1-2 (stereo partly shown) [ZXH-2-42]
induction of IKZF1-CRBN complex formation / IKZF1 binding (in words) [3]: greatly reduced compared to their nitrogen analogs | bromodomain degradation activity and selectivity (in words) [1, 7]: significantly reduced activity

COC(=O)C[C@@H]1N=C(c2ccc(Cl)cc2)c2c(sc(C(=O)NCCCCCCCCOc3cccc4c3C(=O)N(C3CCC(=O)NC3=O)C4=O)c2C)-n2c(C)nnc21 (stereo partly shown) [ZXH-2-43]
induction of IKZF1-CRBN complex formation / IKZF1 binding (in words) [3]: greatly reduced compared to their nitrogen analogs; also recorded: reduced IKZF1 binding | degradation of BRD2/3/4 at low concentration (in words) ([1]; 2.6 nM concentration, 5 h): significant degradation of BRD2/3/4 | bromodomain degradation activity and selectivity (in words) [1, 7]: potent degradation of bromodomains | cellular IKZF1 degradation (in words) [4]: reduced IKZF1 binding and IKZF1 degradation

COC(=O)C[C@@H]1N=C(c2ccc(Cl)cc2)c2c(sc(C(=O)NCCCCCCCCOc3ccc4c(c3)C(=O)N(C3CCC(=O)NC3=O)C4=O)c2C)-n2c(C)nnc21 (stereo partly shown) [ZXH-2-45]
induction of IKZF1-CRBN complex formation / IKZF1 binding (in words) [3]: greatly reduced compared to their nitrogen analogs; also recorded: reduced IKZF1 binding | bromodomain degradation activity and selectivity (in words) [1, 7]: potent degradation of bromodomains | cellular IKZF1 degradation (in words) [4]: reduced IKZF1 binding and IKZF1 degradation

COC(=O)C[C@@H]1N=C(c2ccc(Cl)cc2)c2c(sc(C(=O)NCCCNc3cccc4c3C(=O)N(C3CCC(=O)NC3=O)C4=O)c2C)-n2c(C)nnc21 (stereo partly shown) [ZXH-2-147]
selectivity of degradation across BET bromodomains (in words) [2]: selectively targets BRD4 for degradation and spares BRD2 and BRD3; also recorded: selective degradation of BRD4 | degradation of BRD4BD1 (in words) (BRD4BD1-EGFP): active on BRD4BD1

COC(=O)C[C@@H]1N=C(c2ccc(Cl)cc2)c2c(sc(C(=O)NCCCCNc3cccc4c3C(=O)N(C3CCC(=O)NC3=O)C4=O)c2C)-n2c(C)nnc21 (stereo partly shown) [ZXH-2-184]
selectivity of degradation across BET bromodomains (in words) [2]: selectively targets BRD4 for degradation and spares BRD2 and BRD3; also recorded: selective degradation of BRD4

COC(=O)C[C@@H]1N=C(c2ccc(Cl)cc2)c2c(sc(C(=O)NCCCCCNc3cccc4c3C(=O)N(C3CCC(=O)NC3=O)C4=O)c2C)-n2c(C)nnc21 (stereo partly shown) [ZXH-03-26]
concentrations at which degradation of BRD2 or 3 is spared [2]: > 10 µM | selectivity of degradation across BET bromodomains (in words) [2]: activity exclusively on the first bromodomain of BRD4; also recorded: selectively targets BRD4 for degradation and spares BRD2 and BRD3 | degradation of BRD2 and BRD3 (in words) [5]: inactive on BRD2 and BRD3 | degradation of BRD4BD1 (in words) (BRD4BD1-EGFP): active on BRD4BD1 | DC50 (BRD4BD1-EGFP; GFP/mCherry ratio, read-out: DC50/5h (half-maximal degradation after 5 hours of treatment), BRD4BD1): ~5 nM | degradation of endogenous BRD4 (in words) [6]: degrades endogenous BRD4 with comparable efficacy compared to the best pan-BET degrader dBET6

COC(=O)C[C@@H]1N=C(c2ccc(Cl)cc2)c2c(sc(C(=O)NCCNc3cccc4c3C(=O)N(C3CCC(=O)NC3=O)C4=O)c2C)-n2c(C)nnc21 (stereo partly shown) [ZXH-3-27]
selectivity of degradation across BET bromodomains (in words) [2]: lack of selective degradation of BRD4

COC(=O)C[C@@H]1N=C(c2ccc(Cl)cc2)c2c(sc(C(=O)NCCNc3ccc4c(c3)C(=O)N(C3CCC(=O)NC3=O)C4=O)c2C)-n2c(C)nnc21 (stereo partly shown) [ZXH-3-28]
bromodomain degradation activity and selectivity (in words) [1, 7]: inactive molecule

COC(=O)C[C@@H]1N=C(c2ccc(Cl)cc2)c2c(sc(C(=O)NCCCc3cccc4c3C(=O)N(C3CCC(=O)NC3=O)C4=O)c2C)-n2c(C)nnc21 (stereo partly shown) [ZXH-3-52]
BRD3/BRD4 selective degradation observed [1, 7]: BRD3/BRD4 selective degraders

COC(=O)C[C@@H]1N=C(c2ccc(Cl)cc2)c2c(sc(C(=O)NCCCCCCc3cccc4c3C(=O)N(C3CCC(=O)NC3=O)C4=O)c2C)-n2c(C)nnc21 (stereo partly shown) [ZXH-3-82]
selectivity of degradation across BET bromodomains (in words) [2]: selectively targets BRD4 for degradation and spares BRD2 and BRD3

COC(=O)C[C@@H]1N=C(c2ccc(Cl)cc2)c2c(sc(C(=O)NCCCCCCCCNc3ccc4c(c3)C(=O)N(C3CCC(=O)NC3=O)C4=O)c2C)-n2c(C)nnc21 (stereo partly shown) [dBET72, reference compound]
induction of IKZF1-CRBN complex formation / IKZF1 binding (in words) [3]: pronounced complex formation | cellular IKZF1 degradation (in words) [4]: equipotent to lenalidomide
